Test results reported in patent US10899741B2, “3,4-bipyridyl pyrazole derivative, and preparation method therefor and medical application thereof” (Jiangsu Hengrui Medicine Co., Ltd., priority 2016, dated 2021).

Molecular target: RIPK2 kinase (Homo sapiens (Human), UniProt O43353)
Assay: Inhibition of RIPK2 kinase activity (ADP-Glo kit)
Format: biochemical
Conditions: ATP 50 μM, 27° C. 2.5 hours
Experimental: The inhibition of RIPK2 kinase activity in vitro was determined by the following method.
The inhibition effect of the compounds of the present invention on RIPK2 kinase activity was determined by the following experimental method:
RIPK2 kinase assay kit (V4084, Promega) was used to assay enzyme activity. 2 μl of RIPK2 enzyme solution (the final concentration of enzyme in the reaction system was 0.5 ng/μL) formulated with reaction buffer (40 mM Tris pH 7.5, 20 mM MgCl2, 0.1 mg/ml BSA), 1 μl of a 3-fold gradient dilution of Compound 1 dissolved in 5% DMSO, and 2 μl of a mixed solution of ATP and MBP substrate peptide (the final concentration of ATP was 50 μM, and the final concentration of substrate was 0.2 μg/μL) were added successively to a 384-well plate (4514, Corning). After reaction at 27° C. for 2.5 hours, 5 μl of ADP-Glo solution in the kit was added to each well, then the plate was placed at 27° C. for 40 minutes. 10 μl of kinase assay reagent was then added to each well, then the plate was placed at 27° C. for 30 minutes. The chemiluminescence signal values were measured with a Victor 3 (PerkinElmer) multi-function microplate reader. The IC50 values of the compounds for enzyme inhibition were calculated using Graphpad prism software based on each concentration of the compound and the corresponding signal value thereof.

Sequence of RIPK2 kinase (O43353 whole entry): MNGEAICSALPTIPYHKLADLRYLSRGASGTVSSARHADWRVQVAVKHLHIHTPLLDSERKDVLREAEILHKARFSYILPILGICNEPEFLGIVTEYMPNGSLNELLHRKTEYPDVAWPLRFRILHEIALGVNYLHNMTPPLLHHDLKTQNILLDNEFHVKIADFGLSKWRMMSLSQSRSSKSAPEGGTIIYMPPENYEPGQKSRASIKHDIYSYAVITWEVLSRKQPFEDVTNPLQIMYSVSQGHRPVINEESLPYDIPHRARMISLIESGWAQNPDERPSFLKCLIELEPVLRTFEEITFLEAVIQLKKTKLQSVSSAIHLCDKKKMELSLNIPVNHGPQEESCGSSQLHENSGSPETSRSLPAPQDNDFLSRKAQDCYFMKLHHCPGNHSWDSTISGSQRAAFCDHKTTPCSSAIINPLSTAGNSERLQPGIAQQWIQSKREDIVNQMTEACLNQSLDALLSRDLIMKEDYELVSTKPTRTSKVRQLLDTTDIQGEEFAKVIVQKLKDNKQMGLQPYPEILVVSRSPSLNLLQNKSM

## Cc1cccc(-c2nn(C3CCC3)cc2-c2ccnc(-c3ccc(S(C)(=O)=O)cc3)c2)n1 [Example 1, 4-(1-Cyclobutyl-3-(6-methylpyridin-2-yl)-1H-pyrazol-4-yl)-2-(4-(methylsulfonyl)phenyl)pyridine]
  IC50: 1200 nM
